Assay results from ChEMBL document CHEMBL1201862, “PubChem BioAssay data set” (2004).
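Protocol summary: plate cells (96-well), add compound at 5 concentrations, incubate 48 h, interpolate endpoints linearly. GI50 is the concentration that inhibits growth by half.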 Calls of active or inactive are those of the source. Rule as the data show it: active = GI50 up to about 1.1 µM and inactive = higher. Where a SMILES comes first, the peptide text is derived from it. [ ]: non-standard residue; d: D form. The star is where a group is joined. Hyp = O=C(O)[CH]1C[CH](O)CN1; Cbz = O=C(OCc1ccccc1)*

Key:
Experiment in all cases: NCI-60 cell line screen, 48 h
[1] = test system: K562
[2] = test system: NCI-H460
[3] = test system: HCT-116
[4] = test system: PC-3
[5] = test system: NCI-H23
[6] = test system: UACC-257
[7] = test system: SK-OV-3
[8] = test system: TK-10
[9] = test system: T47D
[10] = test system: RPMI-8226
[11] = test system: Malme-3M
[12] = test system: U-251
[13] = test system: OVCAR-3
[14] = test system: SF-268
[15] = test system: RXF 393
[16] = test system: UO-31
[17] = test system: 786-0
[18] = test system: HCT-15
[19] = test system: CCRF-CEM
[20] = test system: OVCAR-8
[21] = test system: DU-145
[22] = test system: CAKI-1
[23] = test system: M14
[24] = test system: COLO 205
[25] = test system: SF-295
[26] = test system: NCI-H226
[27] = test system: SNB-19
[28] = test system: SK-MEL-5
[29] = test system: HOP-92
[30] = test system: HOP-62
[31] = test system: LOX IMVI
[32] = test system: ACHN
[33] = test system: SNB-75
[34] = test system: SW-620
[35] = test system: MOLT-4
[36] = test system: NCI-H522
[37] = test system: UACC-62
[38] = test system: A549
[39] = test system: BT-549
[40] = test system: IGROV-1
[41] = test system: EKVX
[42] = test system: OVCAR-5
[43] = test system: MDA-N
[44] = test system: SK-MEL-2
[45] = test system: MDA-MB-435
[46] = test system: MDA-MB-231
[47] = test system: MCF7
[48] = test system: HL-60
[49] = test system: Hs-578T
[50] = test system: KM12
[51] = test system: SR
[52] = test system: HT-29
[53] = test system: NCI/ADR-RES
[54] = test system: SK-MEL-28
[55] = test system: SN12C
[56] = test system: SF-539
[57] = test system: A498
[58] = test system: HCC 2998
[59] = test system: OVCAR-4

Oc1ccc[nH]c1=[Se]
GI50 [1]: 36.2 µM (inactive)
GI50 [2]: 41.8 µM (inactive)
GI50 [3]: 33.9 µM (inactive)
GI50 [4]: > 100 µM (inactive)
GI50 [5]: 46.2 µM (inactive)
GI50 [6]: > 100 µM (inactive)
GI50 [7]: 87.1 µM (inactive)
GI50 [8]: 55.3 µM (inactive)
GI50 [9]: 22.4 µM (inactive)
GI50 [10]: 40.6 µM (inactive)
GI50 [11]: 50.1 µM (inactive)
GI50 [12]: 32.7 µM (inactive)
GI50 [13]: > 100 µM (inactive)
GI50 [14]: 76.2 µM (inactive)
GI50 [15]: > 100 µM (inactive)
GI50 [16]: 83.2 µM (inactive)
GI50 [17]: 16 µM (inactive)
GI50 [18]: 44.4 µM
GI50 [19]: 35.3 µM (inactive)
GI50 [20]: 37.2 µM (inactive)
GI50 [21]: 62.2 µM (inactive)
GI50 [22]: 69.7 µM (inactive)
GI50 [23]: 47.6 µM (inactive)
GI50 [24]: 18.7 µM (inactive)
GI50 [25]: 29.3 µM (inactive)
GI50 [26]: > 100 µM (inactive)
GI50 [27]: 85.9 µM (inactive)
GI50 [28]: 39.4 µM (inactive)
GI50 [29]: > 100 µM (inactive)
GI50 [30]: 29.1 µM (inactive)
GI50 [31]: 64.6 µM (inactive)
GI50 [32]: 48.6 µM (inactive)
GI50 [33]: 92.3 µM (inactive)
GI50 [34]: 77.6 µM (inactive)
GI50 [35]: > 100 µM (inactive)
GI50 [36]: 29.6 µM (inactive)
GI50 [37]: > 100 µM (inactive)
GI50 [38]: 32.9 µM (inactive)
GI50 [39]: 55.1 µM (inactive)
GI50 [40]: 66.7 µM (inactive)
GI50 [41]: 25.8 µM (inactive)
GI50 [42]: 57.1 µM (inactive)
GI50 [43]: 57 µM (inactive)
GI50 [44]: > 100 µM (inactive)
GI50 [45]: 41.8 µM (inactive)
GI50 [46]: > 100 µM (inactive)
GI50 [47]: 65.5 µM (inactive)
GI50 [48]: > 100 µM (inactive)
GI50 [49]: > 100 µM (inactive)
GI50 [50]: 45.5 µM (inactive)
GI50 [51]: 36.3 µM (inactive)
GI50 [52]: > 100 µM (inactive)
GI50 [53]: 55.1 µM (inactive)
GI50 [54]: 71.1 µM (inactive)
GI50 [55]: 48.2 µM (inactive)
GI50 [56]: 54.6 µM (inactive)

COc1ccc2cc(C(=O)O)ccc2c1OC
GI50 [1]: > 100 µM (inactive)
GI50 [2]: > 100 µM (inactive)
GI50 [3]: > 100 µM (inactive)
GI50 [4]: > 100 µM (inactive)
GI50 [5]: > 100 µM (inactive)
GI50 [6]: > 100 µM (inactive)
GI50 [7]: > 100 µM (inactive)
GI50 [9]: > 100 µM (inactive)
GI50 [11]: > 100 µM (inactive)
GI50 [12]: > 100 µM (inactive)
GI50 [57]: > 100 µM (inactive)
GI50 [13]: > 100 µM (inactive)
GI50 [14]: > 100 µM (inactive)
GI50 [16]: > 100 µM (inactive)
GI50 [17]: > 100 µM (inactive)
GI50 [18]: > 100 µM
GI50 [19]: > 100 µM (inactive)
GI50 [20]: > 100 µM (inactive)
GI50 [21]: 69.5 µM (inactive)
GI50 [22]: > 100 µM (inactive)
GI50 [23]: > 100 µM (inactive)
GI50 [24]: > 100 µM (inactive)
GI50 [25]: > 100 µM (inactive)
GI50 [26]: > 100 µM (inactive)
GI50 [27]: > 100 µM (inactive)
GI50 [28]: > 100 µM (inactive)
GI50 [30]: > 100 µM (inactive)
GI50 [58]: > 100 µM (inactive)
GI50 [32]: > 100 µM (inactive)
GI50 [33]: 43 µM (inactive)
GI50 [34]: > 100 µM (inactive)
GI50 [35]: > 100 µM (inactive)
GI50 [36]: > 100 µM (inactive)
GI50 [37]: > 100 µM (inactive)
GI50 [38]: > 100 µM (inactive)
GI50 [39]: > 100 µM (inactive)
GI50 [40]: > 100 µM (inactive)
GI50 [42]: > 100 µM (inactive)
GI50 [43]: > 100 µM (inactive)
GI50 [44]: > 100 µM (inactive)
GI50 [45]: > 100 µM (inactive)
GI50 [46]: > 100 µM (inactive)
GI50 [47]: > 100 µM (inactive)
GI50 [48]: > 100 µM (inactive)
GI50 [49]: > 100 µM (inactive)
GI50 [50]: > 100 µM (inactive)
GI50 [51]: > 100 µM (inactive)
GI50 [52]: > 100 µM (inactive)
GI50 [53]: > 100 µM (inactive)
GI50 [55]: > 100 µM (inactive)
GI50 [56]: > 100 µM (inactive)

NC(=O)CNC(=O)C1CC(O)CN1C(=O)C1CCCN1C(=O)OCc1ccccc1 (stereo not drawn) (Cbz-Pro-[Hyp]-Gly-NH2; configuration not given here)
GI50 [1]: > 100 µM (inactive)
GI50 [2]: > 100 µM (inactive)
GI50 [3]: > 100 µM (inactive)
GI50 [4]: > 100 µM (inactive)
GI50 [5]: > 100 µM (inactive)
GI50 [6]: > 100 µM (inactive)
GI50 [7]: > 100 µM (inactive)
GI50 [8]: > 100 µM (inactive)
GI50 [9]: > 100 µM (inactive)
GI50 [10]: > 100 µM (inactive)
GI50 [11]: > 100 µM (inactive)
GI50 [12]: > 100 µM (inactive)
GI50 [57]: > 100 µM (inactive)
GI50 [13]: > 100 µM (inactive)
GI50 [14]: > 100 µM (inactive)
GI50 [15]: > 100 µM (inactive)
GI50 [16]: > 100 µM (inactive)
GI50 [17]: > 100 µM (inactive)
GI50 [18]: > 100 µM
GI50 [19]: > 100 µM (inactive)
GI50 [20]: > 100 µM (inactive)
GI50 [59]: > 100 µM (inactive)
GI50 [21]: > 100 µM (inactive)
GI50 [23]: > 100 µM (inactive)
GI50 [24]: > 100 µM (inactive)
GI50 [25]: > 100 µM (inactive)
GI50 [26]: > 100 µM (inactive)
GI50 [27]: > 100 µM (inactive)
GI50 [28]: > 100 µM (inactive)
GI50 [30]: > 100 µM (inactive)
GI50 [58]: > 100 µM (inactive)
GI50 [31]: > 100 µM (inactive)
GI50 [32]: > 100 µM (inactive)
GI50 [33]: > 100 µM (inactive)
GI50 [34]: > 100 µM (inactive)
GI50 [35]: > 100 µM (inactive)
GI50 [36]: > 100 µM (inactive)
GI50 [37]: > 100 µM (inactive)
GI50 [38]: > 100 µM (inactive)
GI50 [39]: > 100 µM (inactive)
GI50 [40]: > 100 µM (inactive)
GI50 [41]: > 100 µM (inactive)
GI50 [42]: > 100 µM (inactive)
GI50 [43]: > 100 µM (inactive)
GI50 [44]: > 100 µM (inactive)
GI50 [45]: > 100 µM (inactive)
GI50 [46]: > 100 µM (inactive)
GI50 [47]: > 100 µM (inactive)
GI50 [48]: > 100 µM (inactive)
GI50 [49]: > 100 µM (inactive)
GI50 [50]: > 100 µM (inactive)
GI50 [51]: > 100 µM (inactive)
GI50 [52]: > 100 µM (inactive)
GI50 [53]: > 100 µM (inactive)
GI50 [54]: > 100 µM (inactive)
GI50 [55]: > 100 µM (inactive)
